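Interpolation was linear, between the two tested concentrations surrounding the appropriate level; five concentrations were tested over 48 hours in 96-well plates. GI50 marks 50% less growth. TGI is the concentration that stops growth completely.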
Experiments:
Test in all cases: NCI tumour cell line growth inhibition, 48 h
[1] = test system: OVCAR-5 ovarian
[2] = test system: OVCAR-3 ovarian
[3] = test system: UACC-62 melanoma
[4] = test system: BT-549 breast
[5] = test system: NCI-H522 lung
[6] = test system: A549 NSCLC
[7] = test system: SK-MEL-28 melanoma
[8] = test system: SF-539 CNS
[9] = test system: M14 melanoma
[10] = test system: KM12 colon
[11] = test system: NCI-H23 lung
[12] = test system: ACHN renal
[13] = test system: K-562 leukemia
[14] = test system: SR leukemia
[15] = test system: MDA-MB-231 breast
[16] = test system: HCT-15 colon
[17] = test system: MCF7 breast
[18] = test system: SF-268 CNS
[19] = test system: UACC-257 melanoma
[20] = test system: SF-295 CNS
[21] = test system: NCI/ADR-RES ovarian
[22] = test system: SNB-19 CNS
[23] = test system: HCC-2998 colon
[24] = test system: HOP-62 NSCLC
[25] = test system: MDA-MB-435
[26] = test system: SK-OV-3 ovarian
[27] = test system: HS 578T breast
[28] = test system: OVCAR-4 ovarian
[29] = test system: COLO 205 colon
[30] = test system: U251 CNS
[31] = test system: UO-31 renal
[32] = test system: T-47D breast
[33] = test system: 786-0 renal
[34] = test system: SK-MEL-5 melanoma
[35] = test system: LOX IMVI melanoma
[36] = test system: IGROV1 ovarian
[37] = test system: TK-10 renal
[38] = test system: PC-3 prostate
[39] = test system: DU-145 prostate
[40] = test system: RPMI-8226 leukemia
[41] = test system: RXF 393 renal
[42] = test system: EKVX NSCLC
[43] = test system: CAKI-1 renal
[44] = test system: HL-60(TB) leukemia
[45] = test system: NCI-H460 lung
[46] = test system: OVCAR-8 ovarian
[47] = test system: HOP-92 NSCLC
[48] = test system: HCT-116 colon
[49] = test system: SW-620 colon
[50] = test system: SK-MEL-2 melanoma
[51] = test system: SN12C renal

Fc1ccc(Nc2nc3ccccc3c3occc23)cc1
GI50 [1]: 10.1 µM | TGI [1]: 21.8 µM | GI50 [2]: 1480 nM | TGI [2]: 12.1 µM | GI50 [3]: 12.3 µM | TGI [3]: 24.8 µM | GI50 [4]: 15.6 µM | TGI [4]: 28.9 µM | GI50 [5]: 13.7 µM | TGI [5]: 27.8 µM | GI50 [6]: 8.99 µM | TGI [6]: 23.2 µM | GI50 [7]: 2450 nM | TGI [7]: 16.6 µM | GI50 [8]: 19.3 µM | TGI [8]: 33.7 µM | GI50 [9]: 873 nM | TGI [9]: 13.7 µM | GI50 [10]: 1900 nM | TGI [10]: 6.23 µM | GI50 [11]: 1480 nM | TGI [11]: 4.86 µM | GI50 [12]: 1400 nM | TGI [12]: 15.8 µM | GI50 [13]: 3.66 µM | TGI [13]: > 100 µM | GI50 [14]: 2240 nM | TGI [14]: 16.4 µM | GI50 [15]: 1070 nM | TGI [15]: 19.9 µM | GI50 [16]: 9.58 µM | TGI [16]: 21.4 µM | GI50 [17]: 3.39 µM | TGI [17]: 18.5 µM | GI50 [18]: 7.54 µM | TGI [18]: 24.1 µM | GI50 [19]: 13.8 µM | TGI [19]: 28.3 µM | GI50 [20]: 3.39 µM | TGI [20]: 13.1 µM | GI50 [21]: 2480 nM | TGI [21]: 13 µM | GI50 [22]: 7.96 µM | TGI [22]: 24.1 µM | GI50 [23]: 1960 nM | TGI [23]: 7.31 µM | GI50 [24]: 2310 nM | TGI [24]: 13.8 µM | GI50 [25]: 4.02 µM | TGI [25]: 15.6 µM | GI50 [26]: 5.16 µM | TGI [26]: 18.4 µM | GI50 [27]: 14.3 µM | TGI [27]: 33.1 µM | GI50 [28]: 6 µM | TGI [28]: 25.5 µM | GI50 [29]: 3.3 µM | TGI [29]: 12.9 µM | GI50 [30]: 12.3 µM | TGI [30]: 24.7 µM | GI50 [31]: 12.4 µM | TGI [31]: 27.8 µM | GI50 [32]: 135 nM | GI50 [33]: 1030 nM | TGI [33]: 10.6 µM | GI50 [34]: 16.5 µM | TGI [34]: 30.1 µM | GI50 [35]: 3.41 µM | TGI [35]: 17.9 µM | GI50 [36]: 2620 nM | TGI [36]: 35.1 µM | GI50 [37]: 2060 nM | TGI [37]: 6.67 µM | GI50 [38]: 7.07 µM | TGI [38]: 20 µM | GI50 [39]: 14.4 µM | TGI [39]: 27.5 µM | GI50 [40]: 3.56 µM | TGI [40]: 15 µM | GI50 [41]: 12.6 µM | TGI [41]: 31.5 µM | GI50 [42]: 15.2 µM | TGI [42]: 29.5 µM | GI50 [43]: 1890 nM | TGI [43]: 5.24 µM | GI50 [44]: 10.8 µM | TGI [44]: 36.8 µM | GI50 [45]: 4.61 µM | TGI [45]: 19 µM | GI50 [46]: 11.2 µM | TGI [46]: 31.5 µM | GI50 [47]: 5.8 µM | TGI [47]: 19.4 µM | GI50 [48]: 130 nM | TGI [48]: 2410 nM | GI50 [49]: 17 µM | TGI [49]: 30.7 µM | GI50 [50]: 11.9 µM | TGI [50]: 27.6 µM | GI50 [51]: 12.9 µM | TGI [51]: 27.2 µM

Reference: PubChem BioAssay (NCI)
